Measurements published in US8802240B2, “Uses of formulations of thyroid hormone analogs and nanoparticulate forms thereof to increase chemosensitivity and radiosensitivity in tumor or cancer cells” (Nanopharmaceuticals LLC, priority 2011, dated 2014).
“Also recorded” adds a separate entry of the source. Read-outs that look alike come from different tables or passages of the source. One block for each compound: values may come before it.

Legend:
ERK1/2 = experiment: MAPK activation in ECV304 cells (immunoblot of nuclear phosphorylated ERK1/2); type: cell-based; conditions: for effect on T4-induced ERK1/2 activation (in words): PD 98059 30 μmol/L or CGP41251 100 nmol/L for 30 minutes, then 10^−7 M T4 for 15 minutes
Description: ECV304 endothelial cells were cultured in M199 medium with 0.25% hormone-depleted serum 13 for 2 days. […] Nuclear fractions were prepared from all samples by the method reported previously (see Li et al., Carcinogenesis 29:62-69 (2008)), the proteins separated by polyacrylamide gel electrophoresis, and transferred to membranes for immunoblotting with antibody to phosphorylated ERK 1/2.

V-79 cells = conditions: cited from earlier work
[1] = tested on: chick chorioallantoic membrane (CAM) blood vessel branch points; experiment: Chick chorioallantoic membrane (CAM) model of angiogenesis; type: in vivo; conditions: for generation of new blood vessels from existing vessels promoted: 10^−7-10^−9 M
Description: In vivo neovascularization was examined by methods described previously. 9-12 Ten-day-old chick embryos were purchased from SPAFAS (Preston, Conn.) and incubated at 37° C. with 55% relative humidity. A hypodermic needle was used to make a small hole in the shell concealing the air sac, and a second hole was made on the broad side of the egg, directly over an avascular portion of the embryonic membrane that was identified by candling. A false air sac was created beneath the second hole by the application of negative pressure at the first hole, causing the CAM to separate from the shell. […] Thyroid hormone, hormone analogs, FGF2 or control solvents, and inhibitors were then applied to the disks and the disks allowed to dry. The disks were then suspended in PBS and placed on growing CAMs. […] At 24 hours, the MAPK cascade inhibitor PD 98059 was also added to CAMs topically by means of the filter disks. […] The number of vessel branch points contained in a circular region equal to the area of each filter disk were counted. […] In addition, each experiment was performed 3 times. The resulting angiogenesis index is the mean±SEM of new branch points.

ECV304 endothelial cells = experiment: FGF2 release from ECV304 endothelial cells (ELISA); type: cell-based
Description: ECV304 endothelial cells were cultured in M199 medium supplemented with 10% fetal bovine serum. […] After 72 hours, the supernatants were harvested and assays for FGF performed without dilution using a commercial ELISA system (R&D Systems) (See Davis et al., Circ Res 94:1500-1506 (2004)).

pKa of functional groups = type: physicochemical; conditions: estimated
FGF2 cDNA = experiment: RT-PCR of FGF2 in ECV304 cells; type: cell-based; conditions: T4 10^−7 mol/L, apparent by 6 hours, further enhanced by 48 hours
Description: RNA (1 μg) was subjected to reverse transcription-polymerase chain reaction (RT-PCR) using the Access RT-PCR system (Promega). Total RNA was reverse transcribed into cDNA at 48° C. for 45 minutes, then denatured at 94° C. for 2 minutes. Second-strand synthesis and PCR amplification were performed for 40 cycles with denaturation at 94° C. for 30 s, annealing at 60° C. for 60 s, and extension at 68° C. for 120 s, with final ex-tension for 7 minutes at 68° C. after completion of all cycles. PCR primers for FGF2 were as follows: FGF2 sense strand 5′-[…]-3′ (SEQ ID NO:1), antisense strand 5′ […]-3′ (SEQ ID NO:2); the length of the PCR product was 734 bp. Primers for GAPDH included the sense strand 5′-[…]-3′ (SEQ ID NO:3), and antisense strand 5′-[…]-3′ (SEQ ID NO:4); the length of the PCR product was 218 bp. […] The target bands of the gel were quantified using LabImage software (Kapelan), and the value for [FGF2/GAPDH]X10 calculated for each time point.

SF763 glioblastoma cells = conditions: 85 μM, 16 hours at 37° C., cited from earlier work
[2] = tested on: transplantable liver tumor; conditions: cited from earlier work
Morris 7800 hepatoma = conditions: PTU 0.1%; cited from earlier work
[3] = tested on: glioblastoma (GBM) patients; conditions: induction of mild hypothyroidism; cited from earlier work
[4] = tested on: matrigel plug angiogenesis; experiment: Mouse matrigel model of angiogenesis (plug hemoglobin); type: in vivo, mice (C57BL/6NCr); conditions: numbers are Tetrac analogs of Example 13; for Mean inhibition of angiogenesis (%) / Hemoglobin (mg/mL) ± SEM: FGF 100 ng + test substance 10 μg/plug; for Hemoglobin (mg/mL) ± SEM: n = 7-14
Description: Normal male mice (C57BL/6NCr) 6-8 weeks of age and weighing ˜20 g were purchased from Taconic farm. Animals were housed 4 per cage, in controlled conditions of temperature (20-24° C.); humidity (60-70%) and 12 hrs. light/dark cycle provided with food and water ad libitum. […] Aliquots of matrigel were placed into cold polypropylene tubes to prevent the matrigel from solidifying and the angiogenesis promoter added to matrigel with or without agonist. Mice were treated daily. Matrigel was subcutaneously injected as triple injection per animal at 100 μL/animal. At day 14 post plug implant all animals were killed in CO2 chamber and matrigel plugs were collected. Plug hemoglobin content was analyzed from three implants/mice (n=6 per group) to measure angiogenesis.
The matrigel plugs dissected from the mice were carefully stripped of any remaining peritoneum. The plugs were placed into 0.5 mL tube of ddH2O and homogenized for 5-10 min. […] Absorbance was read with a Microplate Manager ELISA reader at 540 nm. […] Hemoglobin concentration is a reflection of the number of blood vessels in the plugs.

M21 melanoma cells = conditions: 20 ug/ml; doses of 0, 5, and 10 Gy; cited from earlier work

Compound: CO[C@@H]1[C@H](N(C)C(=O)c2ccccc2)C[C@H]2O[C@]1(C)n1c3ccccc3c3c4c(c5c6ccccc6n2c5c31)C(=O)NC4 [CGP41251]
effect on T4-induced ERK1/2 activation (in words) (ERK1/2): blocked

Compound: NC(=O)c1cccc(N)c1 [Compound 3AB, 3-aminobenzamide]
inhibition of PLDR (V-79 cells; Thraves et al.): ~70%
Dq value (V-79 cells; with 3AB, without 3.4): 1 Gy

Compound: N[C@@H](Cc1cc(I)c(Oc2ccc(O)c(I)c2)c(I)c1)C(=O)O [Compound T3, 3,5,3′-triiodo-L-thyronine]
increase in blood vessel branch formation ([1]; 1 nmol/L (1 nM) for 3 days, vs PBS): 2 fold
generation of new blood vessels from existing vessels promoted [1]: two- to three-fold
FGF2 (pg/mL/10^6 cells) (ECV304 endothelial cells; T3 (0.01 μmol/L), 3 days, Control 27.7 ± 3.1): 98.8 ± 0.5 pg/mL/10^6 cells

pKa (pKa of functional groups; read-out: pKa of the COOH (carboxylic acid) group): ~2
pKa (pKa of functional groups; read-out: pKa of the NH2 (amino) group): ~9
Compound: N[C@@H](Cc1cc(I)c(Oc2cc(I)c(O)c(I)c2)c(I)c1)C(=O)O [Compound T4, L-thyroxine]
abundance of FGF2 cDNA, corrected for GAPDH content (in words) (FGF2 cDNA): increase in abundance of FGF2 cDNA
generation of new blood vessels from existing vessels promoted [1]: two- to three-fold
effect on the angiogenic effect of sub-maximal FGF2 (in words) ([1]; T4 0.05 μmol/L + FGF2 0.5 μg/mL): enhanced
appearance of phosphorylated ERK1/2 in cell nuclei (ERK1/2; T4 10^−7 mol/L): ≤ 15 min
time of maximal level of nuclear phosphorylated ERK1/2 (ERK1/2; T4 10^−7 mol/L): 30 min
effect on MAPK activation caused by FGF2 (in words) (ERK1/2; T4 10^−7 mol/L + FGF2 10 ng/mL, 15-minute co incubation): enhanced the MAPK activation caused by FGF2

Compound: CC(C)[C@H]1C(=O)N[C@@H](CCCN=C(N)N)C(=O)NCC(=O)N[C@@H](CC(=O)O)C(=O)N[C@H](Cc2ccccc2)C(=O)N1C [EMD121974]
increase of α (SF763 glioblastoma cells): 4.4 fold
α component in the LQ survival equation (SF763 glioblastoma cells; without approximately 0.04): ~0.18 Gy^−1

Compound: COc1cccc(-c2cc(=O)c3ccccc3o2)c1N [PD 98059]
effect on angiogenesis stimulated by T4 and T3 together (in words) ([1]; PD 98059 3 μmol/L, T4 0.1 μmol/L and T3 1 nmol/L): completely blocked; also recorded: fully inhibited
effect on FGF2 stimulation of branch formation (in words) ([1]; PD 98059, FGF2 1 μg/mL): effectively blocked
effect on T4-induced ERK1/2 activation (in words) (ERK1/2): inhibited
FGF2 (pg/mL/10^6 cells) (ECV304 endothelial cells; T3 + PD 98059 (2 μmol/L)): 28.4 ± 3.2 pg/mL/10^6 cells
FGF2 (pg/mL/10^6 cells) (ECV304 endothelial cells; T3 + PD 98059 (20 μmol/L)): 21.7 ± 3.5 pg/mL/10^6 cells
FGF2 (pg/mL/10^6 cells) (ECV304 endothelial cells; T4 + PD 98059 (2 μmol/L)): 26.5 ± 4.5 pg/mL/10^6 cells
FGF2 (pg/mL/10^6 cells) (ECV304 endothelial cells; T4 + PD 98059 (20 μmol/L)): 23.2 ± 4.8 pg/mL/10^6 cells

Compound: CCCc1cc(=O)[nH]c(=S)[nH]1 [PTU, 6-N-propyl-2-thiouracil]
time needed to grow from approximately 270 mm^3 to 900 mm^3 ([2]; 10 Gy of x-rays plus 0.05% PTU in the drinking water, control 6.2, x-rays alone 11.2): 17.8 days
growth rate with PTU alone (in words) ([2]; in vivo): no difference in growth rate from control neoplasms
effect of the presence of PTU on the effect of T4 (in words) ([1]; filter disks pretreated with 1 mmol/L PTU): did not reduce the effect of T4
increase in survival (Morris 7800 hepatoma): approximately 1.3 fold
improvement of the duration of survival [3]: 3 fold

Compound: CC(C)[Si](OC(=O)Cc1cc(I)c(Oc2cc(I)c(O)c(I)c2)c(I)c1)(C(C)C)C(C)C [Tetrac analog 5, Triisopropylsilyl-2-(4-(4-hydroxy-3,5-diiodophenoxy)-3,5-diiodophenyl)acetate]
Mean % Inhibition ([1]; FGF (1.25 μg/ml) + test substance, 10 μg/plug per footnote, numbers are Tetrac analogs of Example 13): 75 ± 19%
Mean Branch points ([1]; FGF (1.25 μg/ml) + test substance, 10 μg/plug per footnote, numbers are Tetrac analogs of Example 13, n = 8, PBS 73 ± 6, FGF 130 ± 11): 87 ± 11
melting point: 146 °C
Mean inhibition of angiogenesis (%) [4]: 104 ± 14%
Hemoglobin (mg/mL) ± SEM [4]: 0.2 ± 0.1 mg/mL
inhibition of FGF-induced angiogenesis (in words) [4]: strong

Compound: O=C(Cc1cc(I)c(Oc2cc(I)c(OCC3CO3)c(I)c2)c(I)c1)NC1CCCCC1 (stereo not shown) [Tetrac analog 6, N-cyclohexyl-2-(4-(3,5-diiodo-4-(oxiran-2-ylmethoxy)phenoxy)-3,5-diiodophenyl)acetamide]
inhibition of angiogenesis in the CAM assay (in words) ([1]; numbers are Tetrac analogs of Example 13): not as strong as compounds 3, 5, 7, and 9
melting point: 242 °C
Mean inhibition of angiogenesis (%) [4]: 80 ± 16%
Hemoglobin (mg/mL) ± SEM [4]: 0.7 ± 0.1 mg/mL
inhibition of FGF-induced angiogenesis (in words) [4]: strong

Compound: CNTO 95: human anti-αv integrin monoclonal antibody
increase in sensitivity (in vitro apoptosis) by a factor of (M21 melanoma cells): 2 fold
